Laboratory results as given in US8952024B2, “Herbicidal pyrimidone derivatives” (E I du Pont de Nemours and Company, priority 2009, dated 2015).

Columns and labels:
Format in all cases: in vivo
[1] = system: umbrella sedge (Cyperus difformis); experiment: Test B flooded paddy test; details: for Plant response rating, Flood, Sedge, Umbrella: 250 g ai/ha, flooded paddy test, visual rating on 0 to 100 scale (0 no effect, 100 complete control) after 13 to 15 days; for Plant response rating, Sedge, Umbrella: Flood (flooded paddy test), 13 to 15 days
Method in brief: (§1)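 Visual scores run from 0 (no effect) to 100 (complete control), assigned by comparison with controls 13 to 15 days after treatment. Test compounds went straight into water standing 3 cm above the soil, around plants at the 2-leaf stage kept in a greenhouse.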

[2] = system: ducksalad (Heteranthera limosa); experiment: Test B flooded paddy test; details: for Plant response rating, Flood, Ducksalad: 250 g ai/ha, flooded paddy test, visual rating on 0 to 100 scale (0 no effect, 100 complete control) after 13 to 15 days; for Plant response rating, Ducksalad: Flood (flooded paddy test), 13 to 15 days
Method in brief: as §1

[3] = system: barnyardgrass (Echinochloa crus-galli); experiment: Test B flooded paddy test; details: for Plant response rating, Flood, Barnyardgrass: 250 g ai/ha, flooded paddy test, visual rating on 0 to 100 scale (0 no effect, 100 complete control) after 13 to 15 days; for Plant response rating, Barnyardgrass: Flood (flooded paddy test), 13 to 15 days
Method in brief: as §1

rice (Oryza sativa) = experiment: Test B flooded paddy test; details: for Plant response rating, Flood, Rice: 250 g ai/ha, flooded paddy test, visual rating on 0 to 100 scale (0 no effect, 100 complete control) after 13 to 15 days; for Plant response rating, Rice: Flood (flooded paddy test), 13 to 15 days
Method in brief: as §1

[4] = system: woolly cupgrass (Eriochloa villosa); experiment: Test B pre-/postemergence plant response; details: for Cupgrass, Woolly plant response rating (0 to 100 scale): 0 is no effect, 13 to 15 days
Method in brief: (§2)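 Seeds sown in loam–sand blend were treated preemergence, and plants at 2–18 cm (1- to 4-leaf stage) in peat-based medium were treated postemergence; compounds were formulated in non-phytotoxic solvent with surfactant. After 13–15 days in greenhouse, response was visually rated against controls, 0 (no effect) to 100 (complete control).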

[5] = system: pigweed (Amaranthus retroflexus); experiment: Test B pre-/postemergence plant response; details: for Pigweed plant response rating (0 to 100 scale): 0 is no effect, 13 to 15 days
Method in brief: as §2

[6] = system: yellow nutsedge (Cyperus esculentus); experiment: Test B pre-/postemergence plant response; details: for Nutsedge, Yellow plant response rating (0 to 100 scale): 0 is no effect, 13 to 15 days
Method in brief: as §2

[7] = system: bermudagrass (Cynodon dactylon); experiment: Test B pre-/postemergence plant response; details: for Bermudagrass plant response rating (0 to 100 scale): 0 is no effect, 13 to 15 days
Method in brief: as §2

[8] = system: downy bromegrass (Bromus tectorum); experiment: Test B pre-/postemergence plant response; details: for Bromegrass, Downy plant response rating (0 to 100 scale): 0 is no effect, 13 to 15 days
Method in brief: as §2

[9] = system: Surinam grass (Brachiaria decumbens); experiment: Test B pre-/postemergence plant response; details: for Surinam Grass plant response rating (0 to 100 scale): 0 is no effect, 13 to 15 days
Method in brief: as §2

[10] = system: lambsquarters (Chenopodium album); experiment: Test B pre-/postemergence plant response; details: for Lambsquarters plant response rating (0 to 100 scale): 0 is no effect, 13 to 15 days
Method in brief: as §2

[11] = system: wheat (Triticum aestivum); experiment: Test B pre-/postemergence plant response; details: for Wheat plant response rating (0 to 100 scale): 0 is no effect, 13 to 15 days
Method in brief: as §2

[12] = 62 g ai/ha, scale of 0 to 100 where 0 is no effect and 100 is complete control
[13] = 125 g ai/ha, scale 0 to 100, 0 is no effect, 100 is complete control
[14] = Flood, 31 g ai/ha, scale 0 to 100 (0 no effect, 100 complete control)
[15] = 31 g ai/ha, postemergence, scale 0 to 100, 0 is no effect, 100 is complete control
[16] = 62 g ai/ha, postemergence, 100 is complete control
[17] = Postemergence, 125 g ai/ha, visual rating after 13 to 15 days, scale 0 (no effect) to 100 (complete control)
[18] = Postemergence, 250 g ai/ha, scale 0 to 100 (0 no effect, 100 complete control)
[19] = 250 g ai/ha, Preemergence, 0 to 100 scale
[20] = Preemergence, 31 g ai/ha, scale 0 to 100 (0 no effect, 100 complete control)
[21] = Preemergence, 62 g ai/ha, scale 0 to 100 (0 no effect, 100 complete control)
[22] = Preemergence, 125 g ai/ha, scale 0 to 100, 0 no effect, 100 complete control

Structure (SMILES): O=C1CCCC(O)=C1C(=O)c1cnc(-c2ccccc2Br)n(-c2ccccc2)c1=O [Compound 71]
- Plant response rating, Flood, Sedge, Umbrella [1]: 25
- Plant response rating, Sedge, Umbrella [1, 12]: 0
- Plant response rating, Sedge, Umbrella [1, 13]: 0
- Sedge, Umbrella plant response rating [1, 14]: 0
- Plant response rating, Flood, Ducksalad [2]: 0
- Plant response rating, Ducksalad [2, 12]: 0
- Plant response rating, Ducksalad [2, 13]: 0
- Ducksalad plant response rating [2, 14]: 0
- Plant response rating, Flood, Barnyardgrass [3]: 0
- Plant response rating, Barnyardgrass [3, 12]: 0
- Plant response rating, Barnyardgrass [3, 13]: 0
- Barnyardgrass plant response rating [3, 14]: 0
- Plant response rating, Flood, Rice (rice (Oryza sativa)): 0
- Plant response rating, Rice (rice (Oryza sativa); [12]): 0
- Plant response rating, Rice (rice (Oryza sativa); [13]): 0
- Rice plant response rating (rice (Oryza sativa); [14]): 0
- Plant response rating, Cupgrass, Woolly [4, 15]: 10
- Cupgrass, Woolly plant response rating (0 to 100 scale) [4, 16]: 45
- Plant response rating, Cupgrass, Woolly [4, 17]: 85
- Plant response rating, Cupgrass, Woolly [4, 18]: 100
- Plant response rating, Pigweed [5, 15]: 85
- Pigweed plant response rating (0 to 100 scale) [5, 16]: 85
- Plant response rating, Pigweed [5, 17]: 98
- Plant response rating, Pigweed [5, 18]: 100
- Plant response rating, Nutsedge, Yellow [6, 15]: 10
- Nutsedge, Yellow plant response rating (0 to 100 scale) [6, 16]: 10
- Plant response rating, Nutsedge, Yellow [6, 17]: 10
- Plant response rating, Nutsedge, Yellow [6, 18]: 25
- Plant response rating, Bermudagrass [7, 15]: 65
- Bermudagrass plant response rating (0 to 100 scale) [7, 16]: 75
- Plant response rating, Bermudagrass [7, 17]: 80
- Plant response rating, Bermudagrass [7, 18]: 98
- Plant response rating, Bromegrass, Downy [8, 15]: 0
- Bromegrass, Downy plant response rating (0 to 100 scale) [8, 16]: 5
- Plant response rating, Bromegrass, Downy [8, 17]: 10
- Plant response rating, Bromegrass, Downy [8, 18]: 30
- Plant response rating, Surinam Grass [9, 15]: 50
- Surinam Grass plant response rating (0 to 100 scale) [9, 16]: 55
- Plant response rating, Surinam Grass [9, 17]: 65
- Plant response rating, Surinam Grass [9, 18]: 85
- Plant response rating, Lambsquarters [10, 15]: 75
- Lambsquarters plant response rating (0 to 100 scale) [10, 16]: 85
- Plant response rating, Lambsquarters [10, 17]: 90
- Plant response rating, Lambsquarters [10, 18]: 98
- Plant response rating, Wheat [11, 15]: 0
- Wheat plant response rating (0 to 100 scale) [11, 16]: 0
- Plant response rating, Wheat [11, 17]: 0
- Plant response rating, Wheat [11, 18]: 5

Structure (SMILES): CCCc1ncc(C(=O)C2=C(O)CCCC2=O)c(=O)n1-c1ccccc1C [Compound 73]
- Plant response rating, Flood, Sedge, Umbrella [1]: 0
- Plant response rating, Sedge, Umbrella [1, 12]: 0
- Plant response rating, Flood, Ducksalad [2]: 0
- Plant response rating, Ducksalad [2, 12]: 0
- Plant response rating, Flood, Barnyardgrass [3]: 0
- Plant response rating, Barnyardgrass [3, 12]: 0
- Plant response rating, Flood, Rice (rice (Oryza sativa)): 0
- Plant response rating, Rice (rice (Oryza sativa); [12]): 0
- Plant response rating, Cupgrass, Woolly [4, 15]: 60
- Cupgrass, Woolly plant response rating (0 to 100 scale) [4, 16]: 65
- Plant response rating, Cupgrass, Woolly [4, 19]: 80
- Plant response rating, Cupgrass, Woolly [4, 17]: 65
- Plant response rating, Cupgrass, Woolly [4, 18]: 65
- Plant response rating, Cupgrass, Woolly [4, 20]: 10
- Plant response rating, Cupgrass, Woolly [4, 21]: 20
- Plant response rating, Cupgrass, Woolly [4, 22]: 55
- Plant response rating, Pigweed [5, 15]: 80
- Pigweed plant response rating (0 to 100 scale) [5, 16]: 98
- Plant response rating, Pigweed [5, 17]: 100
- Plant response rating, Pigweed [5, 18]: 100
- Plant response rating, Pigweed [5, 20]: 95
- Plant response rating, Pigweed [5, 21]: 100
- Plant response rating, Pigweed [5, 22]: 100
- Plant response rating, Nutsedge, Yellow [6, 15]: 20
- Nutsedge, Yellow plant response rating (0 to 100 scale) [6, 16]: 20
- Plant response rating, Nutsedge, Yellow [6, 17]: 50
- Plant response rating, Nutsedge, Yellow [6, 18]: 70
- Plant response rating, Nutsedge, Yellow [6, 20]: 20
- Plant response rating, Nutsedge, Yellow [6, 21]: 65
- Plant response rating, Nutsedge, Yellow [6, 22]: 65
- Plant response rating, Bermudagrass [7, 15]: 65
- Bermudagrass plant response rating (0 to 100 scale) [7, 16]: 80
- Plant response rating, Bermudagrass [7, 19]: 100
- Plant response rating, Bermudagrass [7, 17]: 90
- Plant response rating, Bermudagrass [7, 18]: 90
- Plant response rating, Bermudagrass [7, 20]: 50
- Plant response rating, Bermudagrass [7, 21]: 98
- Plant response rating, Bermudagrass [7, 22]: 98
- Plant response rating, Bromegrass, Downy [8, 15]: 20
- Bromegrass, Downy plant response rating (0 to 100 scale) [8, 16]: 45
- Plant response rating, Bromegrass, Downy [8, 19]: 20
- Plant response rating, Bromegrass, Downy [8, 17]: 50
- Plant response rating, Bromegrass, Downy [8, 18]: 60
- Plant response rating, Bromegrass, Downy [8, 20]: 0
- Plant response rating, Bromegrass, Downy [8, 21]: 5
- Plant response rating, Bromegrass, Downy [8, 22]: 5
- Plant response rating, Surinam Grass [9, 15]: 80
- Surinam Grass plant response rating (0 to 100 scale) [9, 16]: 85
- Plant response rating, Surinam Grass [9, 17]: 85
- Plant response rating, Surinam Grass [9, 18]: 85
- Plant response rating, Surinam Grass [9, 20]: 85
- Plant response rating, Surinam Grass [9, 21]: 100
- Plant response rating, Surinam Grass [9, 22]: 100
- Plant response rating, Lambsquarters [10, 15]: 85
- Lambsquarters plant response rating (0 to 100 scale) [10, 16]: 98
- Plant response rating, Lambsquarters [10, 19]: 100
- Plant response rating, Lambsquarters [10, 17]: 100
- Plant response rating, Lambsquarters [10, 18]: 100
- Plant response rating, Lambsquarters [10, 20]: 95
- Plant response rating, Lambsquarters [10, 21]: 98
- Plant response rating, Lambsquarters [10, 22]: 100
- Plant response rating, Wheat [11, 15]: 0
- Wheat plant response rating (0 to 100 scale) [11, 16]: 35
- Plant response rating, Wheat [11, 17]: 40
- Plant response rating, Wheat [11, 18]: 50
- Plant response rating, Wheat [11, 20]: 0
- Plant response rating, Wheat [11, 21]: 0
- Plant response rating, Wheat [11, 22]: 5
